{"source": "patent US12187739B2", "about": "“Diaryl macrocycle polymorph” (TURNING POINT THERAPEUTICS, INC., priority 2015, dated 2025)", "key": {"[1]": {"tested_on": "KM 12 cells (harboring endogenous TPM3-TRKA fusion gene)", "test": "cells", "conditions": "Homo sapiens, KM12, 72 h, read-out: KM 12 cell prolif. IC50 (nM)", "procedure": "Colorectal cell lines KM 12 (harboring endogenous TPM3-TRKA fusion gene) cells were cultured in DMEM medium, supplemented with 10% fetal bovine serum and 100 U/mL of penicillin/streptomycin. 5000 cells were seeded in 384 well white plate for 24 hours before compounds treatment. Cell proliferation was measured using CellTiter-Glo luciferase-based ATP detection assay (Promega) following the manufactures's protocol after 72 hours incubation. IC50 determinations were performed using GraphPad Prism software (GraphPad, Inc., San Diego, CA).\n5000 cells were seeded in 384 well white plate for 24 hours before compounds treatment. Cell proliferation was measured using CellTiter-Glo luciferase-based ATP detection assay (Promega) following the manufactures's protocol after 72 hours incubation. IC50 determinations were performed using GraphPad Prism software (GraphPad, Inc., San Diego, CA)."}, "[2]": {"tested_on": "Ba/F3-EML4-ALK wild type cell line", "test": "EML4-ALK Ba/F3 stable cell line proliferation assay (CellTiter-Glo)", "assay_type": "cell-based", "conditions": "Ba/F3 cells with EML4-ALK wild-type (variant 1), 48 hours incubation; read-out: EML4-ALK Ba/F3 cell proli. IC50", "procedure": "The EML4-ALK wild-type gene (variant 1) was synthesized at GenScript and cloned into pCDH-CMV-MCS-EF1-Puro plasmid (System Biosciences, Inc). Ba/F3-EML4-ALK wild type cell line was generated by infecting Ba/F3 cells with lentivirus containing EML4-ALK wide-type. Stable cell lines were selected by puromycin treatment, followed by IL-3 withdrawal. 5000 cells were seeded in 384 well white plate overnight before compound treatment."}, "[3]": {"tested_on": "SET-2 cells (harboring endogenous JAK2 V618F point mutation)", "test": "SET-2 cell proliferation assay (CellTiter-Glo)", "assay_type": "cell-based", "conditions": "Homo sapiens, SET-2 essential thrombocythemia cells, 72 hours incubation, read-out: SET2 cell proli. IC50", "quoted_text": "Essential thrombocythemia cell line SET-2 cells (harboring endogenous JAK2 V618F point mutation) or T cell lymphoma Karpas-299 cell line (harboring endogenous NPM-ALK fusion gene) were cultured in RPMI medium, supplemented with 10% fetal bovine serum and 100 U/mL of penicillin/streptomycin. 5000 cells were seeded in 384 well white plate for 24 hours before compounds treatment. Cell proliferation was measured using CellTiter-Glo luciferase-based ATP detection assay (Promega) following the manufactures's protocol after 72 hours incubation. IC50 determinations were performed using GraphPad Prism software (GraphPad, Inc., San Diego, CA)."}}, "note": "pIC50: −log10 of the molar value."}
{"smiles": "C[C@H]1CNC(=O)c2cnn3ccc(nc23)N[C@H](C)c2cc(F)ccc2O1", "note": "[Compound I, (7S,13R)-11-fluoro-7,13-dimethyl-6,7,13,14-tetrahydro-1,15-ethenopyrazolo[4,3-f][1,4,8,10]benzoxatriazacyclotridecin-4(5H)-one]", "values": [{"measurement": "IC50", "setting": "[1]", "result": 0.5, "unit": "nM"}, {"measurement": "pIC50", "setting": "[2]", "result": 7.68}, {"measurement": "pIC50", "setting": "[3]", "result": 6.62}]}
